Results taken from paper PMC12153265 (mBio, 2025).

How the values were obtained:
SARS-CoV-2 [1] = assay: SARS-CoV-2 replication in Caco-2 cells, viral titer in the medium by plaque assay; format: cell-based; settings: for reduction of viral yield: MOI = 0.1, 72 h; for reduction of viral yield / antiviral activity in SARS-CoV-2 infection compared with compound 1: plaque assay; for IC50 / antiviral activity in SARS-CoV-2 infection compared with compound 1: Caco-2, MOI = 0.1, 72 h; for IC50: viral titer in medium by plaque assay, read-out: IC50, inhibition of SARS-CoV-2 replication
Procedure: (§1) NHBE (1.5 × 10^5 cells), Calu-3 (5 × 10^5 cells), or Caco-2 cells (2 × 10^5 cells) were seeded in one well of 12-well plates. Cells were washed with FBS-free medium before viral infection. SARS-CoV-2 was diluted in 250 µL (per well) medium and added to the above cells. Viral infection was incubated on a rocker for 45 min at 37°C. Cells were washed with fresh medium, and medium containing 10% FBS was added.
(§2) Vero E6-hACE2 cells were seeded in 6- or 12-well plates. When cell confluence reached 100%, cells were washed with FBS-free medium and infected with medium containing serially diluted SARS-CoV-2. After infection, the medium was removed, and overlay medium containing FBS-free 1× DMEM and 1% low-melting point agarose was added. At 72 h post-infection, cells were fixed with 4% paraformaldehyde (PFA) overnight and stained with 0.2% crystal violet. Plaques were counted on a lightbox.
(§3) Caco-2, NHBE, Calu-3, and Vero E6-hACE2 cells were pre-treated with compound 1, 6, or 10 and infected with SARS-CoV-2 (MOI = 0.1 for Caco-2, NHBE, and Calu-3; MOI = 0.001 for Vero E6-hACE2). Compounds were added daily during viral infection until the end of the experiments (72 h for Caco-2 and Calu-3, 48 h for NHBE, and 24 h for Vero E6-hACE2), with DMSO used as a control. Viral titer in the medium was determined by plaque assay. Cytotoxicity assay was performed for uninfected Caco-2, NHBE, Calu-3, and Vero E6-hACE2 cells with the same treatment schedule as that of viral replication assay. Cytotoxicity was determined with an XTT assay kit (Roche), according to the manufacturer’s instructions. The percentage of inhibition was normalized to DMSO control. IC50, IC90, and CC50 were calculated with GraphPad Prism software.

SARS-CoV-2 [2] = assay: SARS-CoV-2 replication in NHBE cells, viral titer in the medium by plaque assay; format: cell-based; settings: Severe acute respiratory syndrome coronavirus 2, NHBE, 48 h
Procedure: as §1, §2
Caco-2, NHBE, Calu-3, and Vero E6-hACE2 cells were pre-treated with compound 1, 6, or 10 and infected with SARS-CoV-2 (MOI = 0.1 for Caco-2, NHBE, and Calu-3; MOI = 0.001 for Vero E6-hACE2). […] Viral titer in the medium was determined by plaque assay. […] Cytotoxicity was determined with an XTT assay kit (Roche), according to the manufacturer’s instructions. […] IC50, IC90, and CC50 were calculated with GraphPad Prism software.

SARS-CoV-2 [3] = assay: SARS-CoV-2 RNA abundance in infected Caco-2 cells, real-time PCR; format: cell-based; settings: MOI = 0.1, 72 h
CTPS1 [4] = molecular target: CTPS1 (Homo sapiens, UniProt P17812); assay: CTPS1 enzymatic activity assay (UTP to CTP conversion, mass spectrometry); format: biochemical; settings: read-out: inhibition of CTP synthesis compared with DMSO
[5] = Cytotoxicity, XTT assay, uninfected Caco-2 cells; format: cell-based, human; settings: human, uninfected Caco-2 cells, uninfected Caco-2, XTT assay, read-out: CC50, cell viability
Procedure: as §3

[6] = Cytotoxicity, XTT assay, uninfected NHBE cells; format: cell-based; settings: human, read-out: CC50, cell viability
Procedure: as §3

IFNB1, ISG56, CCL5, Mx1 = assay: Antiviral gene expression in SARS-CoV-2-infected Caco-2 cells, real-time PCR; format: cell-based, human; settings: Caco-2, 2 µM and 6 µM, MOI = 0.1, 48 h
CTP synthesis = assay: Intracellular CTP/CDP synthesis, [amide-15N]glutamine tracing and mass spectrometry
NF-κB = NF-κB activation by Sendai virus, luciferase reporter assay in 293T cells; format: cell-based, human; settings: SeV infection
Procedure: (§4) HEK293T cells in 24-well plates (~50% cell density) were transfected with a reporter plasmid cocktail containing 50 ng luciferase reporter plasmid (ISRE-luc, IFN-β-luc, or NF-κB), 5 ng TK-renilla luciferase reporter (control vector), and the indicated expression plasmids by calcium phosphate precipitation. Whole cell lysates (WCLs) were prepared at 24–30 h post-transfection and used for dual luciferase assay according to the manufacturer’s instruction (Promega).

IFNB1 = assay: Antiviral gene expression in 293T cells infected with Sendai virus, real-time PCR
IFN-β promoter = assay: IFN-β induction by Sendai virus, luciferase reporter assay in 293T cells; format: cell-based, human; settings: SeV infection; for IFN induction compared with compound 1, reporter assay: 293T cells
Procedure: as §4

SARS-CoV-2 [7] = assay: SARS-CoV-2 replication (plaque assay) and cytotoxicity (XTT) in Calu-3 cells; format: cell-based; settings: Calu-3, MOI = 0.1, 72 h
Procedure: as §3

Caco-2 cells = assay: Cytotoxicity, XTT assay, uninfected Caco-2 cells; format: cell-based, human; settings: uninfected Caco-2, XTT assay, 72 h; read-out: CC50, cell viability
Procedure: as §3

CTPS1 [8] = molecular target: T1, CTPS1 (Homo sapiens, UniProt P17812); assay: Covalent labeling of FLAG-CTPS1 in 293T cells, in-gel fluorescence imaging; format: binding; settings: FLAG-CTPS1 expressing 293T cells, 2 h
T1 construct: expressed in transfected cells; host or cells: 293T cells expressing FLAG-CTPS1
T1 sequence (P17812 1-591): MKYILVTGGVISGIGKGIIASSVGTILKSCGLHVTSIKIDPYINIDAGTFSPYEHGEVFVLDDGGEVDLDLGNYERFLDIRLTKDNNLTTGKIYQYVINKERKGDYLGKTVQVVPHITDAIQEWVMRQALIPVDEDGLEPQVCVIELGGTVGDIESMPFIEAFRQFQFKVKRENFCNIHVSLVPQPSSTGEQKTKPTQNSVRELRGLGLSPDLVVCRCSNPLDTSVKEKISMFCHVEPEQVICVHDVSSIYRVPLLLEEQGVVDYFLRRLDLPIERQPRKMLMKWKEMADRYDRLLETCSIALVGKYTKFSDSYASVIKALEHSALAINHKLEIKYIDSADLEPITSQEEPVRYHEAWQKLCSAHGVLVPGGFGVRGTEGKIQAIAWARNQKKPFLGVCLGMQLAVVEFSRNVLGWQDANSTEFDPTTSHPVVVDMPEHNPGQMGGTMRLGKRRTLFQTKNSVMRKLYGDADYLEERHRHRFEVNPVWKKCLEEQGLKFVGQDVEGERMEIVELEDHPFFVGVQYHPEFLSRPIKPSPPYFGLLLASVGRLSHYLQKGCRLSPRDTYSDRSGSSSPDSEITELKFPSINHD

SARS-CoV-2 [9] = assay: SARS-CoV-2 infection of K18-hACE2 transgenic mice; format: in vivo, mouse; settings: 50 mg/kg daily intraperitoneal, 3 dpi
Procedure: K18-hACE2 transgenic mice were intraperitoneally administered with compound 10 at a dose of 50 mg/kg and vehicle 1 day before infection with 1 × 10^4 PFU of SARS-CoV-2. Body weight and compound administration were monitored daily. Mice were humanely euthanized at 3 dpi, and the lung tissues were harvested for viral titration, real-time PCR, and pathological analysis.
K18-ACE2 transgenic mice were euthanized on day 3 after SARS-CoV-2 infection. Fresh lung pieces were fixed with 10% formalin for 24 h. The post-caval lobes of the […] were sent to the histology lab in USC of the School of Pharmacy Core Facilities for processing and hematoxylin and eosin (H&E) staining. In brief, tissues were dehydrated and embedded in paraffin. Paraffin-embedded tissue blocks were sectioned with 5 µm thickness. Sections were processed by H&E staining and imaged by ZEISS Axio Scope.A1 microscope (Zeiss) and analyzed by ZEISS ZEN Blue software.
Immunofluorescence staining was performed on the middle lobes of the […] fixed with 10% formalin. Tissues were embedded in optimal cutting temperature (OCT) compound and frozen immediately at −80°C. Subsequently, the frozen tissues were cut into 8 µm sections using a cryostat-microtome. Sections were blocked with 10% normal goat serum diluted in PBST for 1 h and incubated with primary antibodies diluted in 10% normal goat serum overnight at 4°C. After washing with PBST, sections were incubated with species-matched secondary antibodies for 30 min at room temperature. Then tissue sections were washed with PBST, mounted with VectaMount Mounting Medium (Vector Laboratories), and analyzed by a confocal microscope (Nikon).

SARS-CoV-2 [10] = assay: SARS-CoV-2 infection of AAV-hACE2-transduced C57BL/6 J mice; settings: 35 mg/kg daily intraperitoneal, 4 dpi

COc1cccc(NC(=O)c2cccc(NC(=O)CCl)c2)c1 [Compound 1]
reduction of viral yield (SARS-CoV-2 [1]; Caco-2, 2 µM): ~ 10 fold | reduction of viral yield (SARS-CoV-2 [1]; Caco-2, 6 µM): ~50 fold | IC90 (SARS-CoV-2 [1]; Severe acute respiratory syndrome coronavirus 2, Caco-2, 72 h, read-out: IC90, inhibition of SARS-CoV-2 replication): 1560 nM | IC50 (SARS-CoV-2 [1]; Severe acute respiratory syndrome coronavirus 2): 170 nM | IC50 (SARS-CoV-2 [2]; read-out: IC50, inhibition of SARS-CoV-2 replication): 970 nM | IC90 (SARS-CoV-2 [2]; read-out: IC90, inhibition of SARS-CoV-2 replication): 8700 nM | reduction of viral RNA abundance (Nsp1, N, E) (SARS-CoV-2 [3]; Caco-2, 2 µM): > 50% | reduction of viral RNA abundance (Nsp1, N, E) (SARS-CoV-2 [3]; Caco-2, 6 µM): ~ 75% | inhibition at 10 µM (CTPS1 [4]): 55 to 83% | CC50 at 72 h [5]: 2420 nM | CC50 at 48 h [6]: 3750 nM | expression of antiviral genes (IFNB1, ISG56, CCL5, Mx1) (IFNB1, ISG56, CCL5, Mx1): elevated | intracellular concentration of [amide-15N]CTP and [amide-15N]CDP (CTP synthesis; Caco-2 cells infected with SARS-CoV-2): potently diminished | [amide-15N]CTP and [amide-15N]CDP (CTP synthesis; Caco-2 cells stably expressing ORF8): diminished | NF-κB activation, luciferase reporter (NF-κB): no effect | IFNB1 expression (IFNB1; 293T cells infected with Sendai virus): increased IFNB1 expression in a dose-dependent manner | expression of IFNB1 and ISG56 inhibited by Nsp8 and ORF8 (IFNB1; 293T cells transfected with Nsp8 or ORF8, SeV infection, 6 h): significantly restored | IFN induction, luciferase reporter (IFN-β promoter; CTPS1-depleted 293T cells): failed to do so | IFN induction, luciferase reporter (IFN-β promoter; control 293T cells): elevated IFN induction | CC50 value relative to IC50 value (SARS-CoV-2 [7]): IC50 values as high as their CC50 values

COc1ccccc1NC(=O)c1cccc(NC(=O)CCl)c1 [Compound 6]
antiviral activity in SARS-CoV-2 infection compared with compound 1 (SARS-CoV-2 [1]): more robust antiviral activity | IC50 (SARS-CoV-2 [1]): 140 nM | CC50 (Caco-2 cells): 2820 nM | IFN induction compared with compound 1, reporter assay (IFN-β promoter): better effect on IFN induction than compound 1 | CC50 value relative to IC50 value (SARS-CoV-2 [7]): IC50 values as high as their CC50 values

C#CCOc1cccc(NC(=O)c2cccc(NC(=O)CCl)c2)c1 [Compound 2]
covalent labeling of CTPS1 (CTPS1 [8]): covalently labeled CTPS1 in a dose-dependent manner

CCCCCNC(=O)c1cccc(NC(=O)CCl)c1 [Compound 10]
antiviral activity in SARS-CoV-2 infection compared with compound 1 (SARS-CoV-2 [1]): more robust antiviral activity | IC50 (SARS-CoV-2 [1]): 110 nM | lung pathology, H&E staining (inflammatory infiltration) (SARS-CoV-2 [9]): weak and isolated infiltration of immune cells | viral N protein in the lung, immunofluorescence staining (SARS-CoV-2 [9]): lower expression of viral protein | immune gene expression in the lung (SARS-CoV-2 [9]; vs vehicle): elevated | viral RNA abundance in the lung (SARS-CoV-2 [9]; vs vehicle): reduced | viral titer in the lung (SARS-CoV-2 [9]; vs vehicle, plaque assay): reduced | CC50 (Caco-2 cells): 6170 nM | viral titer in the lung (SARS-CoV-2 [10]; plaque assay): decreased | expression of cellular antiviral genes (Ifnb1, Isg15, Isg56, Mx1) in the lung (SARS-CoV-2 [10]; real-time PCR): elevated | IFN induction compared with compound 1, reporter assay (IFN-β promoter): better effect on IFN induction than compound 1 | CC50 value relative to IC50 value (SARS-CoV-2 [7]): 10 fold
